{"source": "patent US20080318792A1", "about": "“Extension of pollination period” (priority 2007, published 2008)", "key": {"[1]": {"system": "corn seed lot \"Hughes High\" (commercial hybrid)", "assay": "Dose-response of corn soil emergence to ABA seed treatment in calendar and thermal time", "type": "in vivo", "source_text": "Because corn germination and phenology is driven by heat, the corn seed industry uses thermal time (Growing-Degree-Days, or GDD) rather than calendar time to measure and predict flowering. The standard formula for calculating the GDD contribution from one calendar day for corn is: where “Max temp” is either the high temperature for the day or 86, whichever is lower, and “Min temp” is either the low temperature for the day in F or 50, whichever is higher. In growth chambers at constant temperature the calculation is trivial. For example, in our nominally 25° C. chamber, the soil temperature is actually about 26.1° C. (79 F) due to the heat contribution of the light. This time corresponds to 29 GDD. […] The purpose of this experiment was to evaluate the dose response of corn seed emergence after seed treatment with ABA in terms of thermal time. ABA was applied at 0, 1, 2, 3, 4, 5, 10, 15, 20 and 25 g/cwt as the free acid in experimental seed treatment slurries as described under Example 1. The seed lot was designated as “Hughes High” and was a commercial hybrid. The seed was planted in soil in plastic boxes as described under Example 2, and incubated at 25° C. and 18° C. as described under Example 2. Emergence was counted every 1-2 days and the data reduced as described under Example 2. The daily heat unit contribution was calculated for the two chambers, and the responses examined in cumulative thermal time as well as calendar time."}, "[2]": {"system": "commercial inbred sorghum lines", "assay": "Soil emergence of sorghum inbreds after ABA seed treatment", "type": "in vivo", "conditions": "for Emergence / Median time to emergence / Quartile range: soil 20/30° C.", "experimental": "Seed of four commercial inbred sorghum lines were obtained from a genetics supplier. These inbreds are representative of many male parents used in hybrid sorghum seed production. ABA in the form of the free acid was applied at rates of 0, 10, 25, 50 and 100 g/cwt. Application was performed as described under Example 2 above, except the Maxim XL (Syngenta) was applied at 0.334 oz/cwt, Allegiance FL (Bayer), was applied at 0.75 oz/cwt, and Thiram 42-S (Bayer) was applied at 3.5 oz/cwt, using a slurry rate of 25 oz/cwt. The seed was planted in soil in plastic boxes as described under Example 2, except at a depth of 2 cm., and incubated at 20/30° C. (AOSA Rules for Testing Seeds, 2005). Emergence was counted every 1-3 days and the data reduced as described under Example 2."}, "[3]": {"conditions": "ABA free acid 20 g/cwt, 25° C. soil test"}, "[4]": {"conditions": "sorghum inbred 43, ABA 10 g/cwt"}, "[5]": {"conditions": "sorghum inbred 43, ABA 25 g/cwt"}, "[6]": {"conditions": "sorghum inbred 43, ABA 50 g/cwt"}, "[7]": {"conditions": "sorghum inbred 43, ABA 100 g/cwt"}, "[8]": {"conditions": "sorghum inbred 44, ABA 10 g/cwt"}, "[9]": {"conditions": "sorghum inbred 44, ABA 25 g/cwt"}, "[10]": {"conditions": "sorghum inbred 44, ABA 50 g/cwt"}, "[11]": {"conditions": "sorghum inbred 44, ABA 100 g/cwt"}, "[12]": {"conditions": "sorghum inbred 45, ABA 10 g/cwt"}, "[13]": {"conditions": "sorghum inbred 45, ABA 25 g/cwt"}, "[14]": {"conditions": "sorghum inbred 45, ABA 50 g/cwt"}, "[15]": {"conditions": "sorghum inbred 45, ABA 100 g/cwt"}, "[16]": {"conditions": "sorghum inbred 46, ABA 10 g/cwt"}, "[17]": {"conditions": "sorghum inbred 46, ABA 25 g/cwt"}, "[18]": {"conditions": "sorghum inbred 46, ABA 50 g/cwt"}, "[19]": {"conditions": "sorghum inbred 46, ABA 100 g/cwt"}}}
{"smiles": "CC1=CC(=O)CC(C)(C)[C@@]1(O)/C=C/C(C)=C\\C(=O)O", "note": "[ABA, S-(+)-abscisic acid]", "values": [{"measurement": "effect on emergence of corn seedlings", "setting": "[1]; ABA free acid 1-25 g/cwt, 18 and 25° C.", "value": "delayed emergence progressively as the dose was increased"}, {"measurement": "Emergence", "setting": "[1]; ABA free acid 1 g/cwt, 18° C. soil test", "value": 94.2, "unit": "%"}, {"measurement": "Emergence", "setting": "[1]; ABA free acid 1 g/cwt, 25° C. soil test", "value": 97.1, "unit": "%"}, {"measurement": "Emergence", "setting": "[1]; ABA free acid 2 g/cwt, 18° C. soil test", "value": 91.2, "unit": "%"}, {"measurement": "Emergence", "setting": "[1]; ABA free acid 2 g/cwt, 25° C. soil test", "value": 95.5, "unit": "%"}, {"measurement": "Emergence", "setting": "[1]; ABA free acid 3 g/cwt, 18° C. soil test", "value": 94.0, "unit": "%"}, {"measurement": "Emergence", "setting": "[1]; ABA free acid 3 g/cwt, 25° C. soil test", "value": 92.1, "unit": "%"}, {"measurement": "Emergence", "setting": "[1]; ABA free acid 4 g/cwt, 18° C. soil test", "value": 89.2, "unit": "%"}, {"measurement": "Emergence", "setting": "[1]; ABA free acid 4 g/cwt, 25° C. soil test", "value": 96.3, "unit": "%"}, {"measurement": "Emergence", "setting": "[1]; ABA free acid 5 g/cwt, 18° C. soil test", "value": 92.0, "unit": "%"}, {"measurement": "Emergence", "setting": "[1]; ABA free acid 5 g/cwt, 25° C. soil test", "value": 95.0, "unit": "%"}, {"measurement": "Emergence", "setting": "[1]; ABA free acid 10 g/cwt, 18° C. soil test", "value": 94.0, "unit": "%"}, {"measurement": "Emergence", "setting": "[1]; ABA free acid 10 g/cwt, 25° C. soil test", "value": 89.0, "unit": "%"}, {"measurement": "Emergence", "setting": "[1]; ABA free acid 15 g/cwt, 18° C. soil test", "value": 92.1, "unit": "%"}, {"measurement": "Emergence", "setting": "[1]; ABA free acid 15 g/cwt, 25° C. soil test", "value": 96.3, "unit": "%"}, {"measurement": "Emergence", "setting": "[1]; ABA free acid 20 g/cwt, 18° C. soil test", "value": 90.1, "unit": "%"}, {"measurement": "Emergence", "setting": "[1]; [3]", "value": 95.0, "unit": "%"}, {"measurement": "delay", "setting": "[1]; [3]", "value": 3.4, "unit": "days"}, {"measurement": "Emergence", "setting": "[1]; ABA free acid 25 g/cwt, 18° C. soil test", "value": 88.1, "unit": "%"}, {"measurement": "Emergence", "setting": "[1]; ABA free acid 25 g/cwt, 25° C. soil test", "value": 97.1, "unit": "%"}, {"measurement": "effect on emergence of sorghum inbreds", "setting": "[2]; ABA 10-100 g/cwt", "value": "progressively and significantly delayed emergence"}, {"measurement": "Emergence", "setting": "[2]; [4]", "value": 94.0, "unit": "%"}, {"measurement": "Median time to emergence", "setting": "[2]; [4]", "value": 5.1, "unit": "days"}, {"measurement": "Quartile range", "setting": "[2]; [4]", "value": 1.5, "unit": "days"}, {"measurement": "Emergence", "setting": "[2]; [5]", "value": 94.2, "unit": "%"}, {"measurement": "Median time to emergence", "setting": "[2]; [5]", "value": 6.3, "unit": "days"}, {"measurement": "Quartile range", "setting": "[2]; [5]", "value": 2.2, "unit": "days"}, {"measurement": "Emergence", "setting": "[2]; [6]", "value": 87.2, "unit": "%"}, {"measurement": "Median time to emergence", "setting": "[2]; [6]", "value": 8.6, "unit": "days"}, {"measurement": "Quartile range", "setting": "[2]; [6]", "value": 3.7, "unit": "days"}, {"measurement": "Emergence", "setting": "[2]; [7]", "value": 87.9, "unit": "%"}, {"measurement": "Median time to emergence", "setting": "[2]; [7]", "value": 11.3, "unit": "days"}, {"measurement": "Quartile range", "setting": "[2]; [7]", "value": 4.8, "unit": "days"}, {"measurement": "Emergence", "setting": "[2]; [8]", "value": 79.0, "unit": "%"}, {"measurement": "Median time to emergence", "setting": "[2]; [8]", "value": 5.7, "unit": "days"}, {"measurement": "Quartile range", "setting": "[2]; [8]", "value": 2.6, "unit": "days"}, {"measurement": "Emergence", "setting": "[2]; [9]", "value": 73.2, "unit": "%"}, {"measurement": "Median time to emergence", "setting": "[2]; [9]", "value": 8.4, "unit": "days"}, {"measurement": "Quartile range", "setting": "[2]; [9]", "value": 3.2, "unit": "days"}, {"measurement": "Emergence", "setting": "[2]; [10]", "value": 71.3, "unit": "%"}, {"measurement": "Median time to emergence", "setting": "[2]; [10]", "value": 10.7, "unit": "days"}, {"measurement": "Quartile range", "setting": "[2]; [10]", "value": 4.6, "unit": "days"}, {"measurement": "Emergence", "setting": "[2]; [11]", "value": 49.0, "unit": "%"}, {"measurement": "Median time to emergence", "setting": "[2]; [11]", "value": 14.4, "unit": "days"}, {"measurement": "Quartile range", "setting": "[2]; [11]", "value": 4.7, "unit": "days"}, {"measurement": "Emergence", "setting": "[2]; [12]", "value": 81.3, "unit": "%"}, {"measurement": "Median time to emergence", "setting": "[2]; [12]", "value": 5.4, "unit": "days"}, {"measurement": "Quartile range", "setting": "[2]; [12]", "value": 1.5, "unit": "days"}, {"measurement": "Emergence", "setting": "[2]; [13]", "value": 77.1, "unit": "%"}, {"measurement": "Median time to emergence", "setting": "[2]; [13]", "value": 7.3, "unit": "days"}, {"measurement": "Quartile range", "setting": "[2]; [13]", "value": 3.1, "unit": "days"}, {"measurement": "Emergence", "setting": "[2]; [14]", "value": 54.1, "unit": "%"}, {"measurement": "Median time to emergence", "setting": "[2]; [14]", "value": 10.6, "unit": "days"}, {"measurement": "Quartile range", "setting": "[2]; [14]", "value": 3.5, "unit": "days"}, {"measurement": "Emergence", "setting": "[2]; [15]", "value": 25.0, "unit": "%"}, {"measurement": "Median time to emergence", "setting": "[2]; [15]", "value": 14.9, "unit": "days"}, {"measurement": "Quartile range", "setting": "[2]; [15]", "value": 6.7, "unit": "days"}, {"measurement": "Emergence", "setting": "[2]; [16]", "value": 89.2, "unit": "%"}, {"measurement": "Median time to emergence", "setting": "[2]; [16]", "value": 5.7, "unit": "days"}, {"measurement": "Quartile range", "setting": "[2]; [16]", "value": 2.6, "unit": "days"}, {"measurement": "Emergence", "setting": "[2]; [17]", "value": 86.1, "unit": "%"}, {"measurement": "Median time to emergence", "setting": "[2]; [17]", "value": 7.0, "unit": "days"}, {"measurement": "Quartile range", "setting": "[2]; [17]", "value": 3.0, "unit": "days"}, {"measurement": "Emergence", "setting": "[2]; [18]", "value": 86.2, "unit": "%"}, {"measurement": "Median time to emergence", "setting": "[2]; [18]", "value": 8.8, "unit": "days"}, {"measurement": "Quartile range", "setting": "[2]; [18]", "value": 3.9, "unit": "days"}, {"measurement": "Emergence", "setting": "[2]; [19]", "value": 75.1, "unit": "%"}, {"measurement": "Median time to emergence", "setting": "[2]; [19]", "value": 11.4, "unit": "days"}, {"measurement": "Quartile range", "setting": "[2]; [19]", "value": 5.0, "unit": "days"}]}
